Experimental data taken from US20230057568A1, “COMPOUNDS FOR TREATING FAMILIAL DYSAUTONOMIA” (PTC THERAPEUTICS, INC., priority 2019, published 2023).

Test system: Elongator complex protein 1 (ELP1, also referred to as IKBKAP)
Assay: IKBKAP-HTRF Assay
Assay type: cell-based, human
Conditions: FD patient-derived fibroblasts GM04589, 48 hours incubation; for EC2x for IKBKAP protein expression (concentration producing two times the amount of IKBKAP protein vs DMSO vehicle control): 7-point concentration curve; for MFI (maximum fold increase in IKBKAP protein abundance relative to the vehicle control): HTRF
Summary of the method: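 Sandwich HTRF (anti-IKAP d2 and K(9+8)) on cell lysates measured IKBKAP protein after overnight 4 °C incubation, read at 665 and 620 nm. Lysates came from FD patient cells exposed 48 hours to 7-point compound dilutions, in triplicate. Outputs: maximum fold increase over vehicle, and EC2× (the concentration giving twice the DMSO-control protein level).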

Structure (SMILES) | EC2x for IKBKAP protein expression (concentration producing two times the amount of IKBKAP protein vs DMSO vehicle control) | MFI (maximum fold increase in IKBKAP protein abundance relative to the vehicle control)
Cc1c(C[C@H](C)N)sc2c(NCc3ncc[nH]3)nc(Cl)nc12 [Cpd 73, 6-[(2S)-2-aminopropyl]-2-chloro-N-[(1H-imidazol-2-yl)methyl]-7-methylthieno[3,2-d]pyrimidin-4-amine] | *** (between >0.02 μM and ≤0.5 μM) | ** (between >1.9 and <2.9)
Cc1c(C[C@H](C)N)sc2c(NCc3ncccc3F)nc(Cl)nc12 [Cpd 59, 6-[(2S)-2-aminopropyl]-2-chloro-N-[(3-fluoropyridin-2-yl)methyl]-7-methylthieno[3,2-d]pyrimidin-4-amine] | *** (between >0.02 μM and ≤0.5 μM) | **** (between >3.9 and <4.9)
CC[C@H](N)Cc1sc2c(NCc3ncco3)nc(Cl)nc2c1C [Cpd 69, 6-[(2S)-2-aminobutyl]-2-chloro-7-methyl-N-[(1,3-oxazol-2-yl)methyl]thieno[3,2-d]pyrimidin-4-amine] | **** (between >0.005 μM and ≤0.02 μM) | ***** (>4.9)
C[C@H](N)Cc1sc2c(NCc3cccs3)nc(C#N)nc2c1Br [Cpd 83, 6-[(2S)-2-aminopropyl]-7-bromo-4-{[(thiophen-2-yl)methyl]amino}thieno[3,2-d]pyrimidine-2-carbonitrile] | **** (between >0.005 μM and ≤0.02 μM) | ***** (>4.9)
Cc1c(C[C@H](C)CN)sc2c(NCc3ccco3)nc(Cl)nc12 [Cpd 70, 6-[(2S)-3-amino-2-methylpropyl]-2-chloro-N-[(furan-2-yl)methyl]-7-methylthieno[3,2-d]pyrimidin-4-amine] | *** (between >0.02 μM and ≤0.5 μM) | **** (between >3.9 and <4.9)
Cc1c(C[C@@H]2CCOC(=O)N2)sc2c(NCc3ccco3)nc(Cl)nc12 [Cpd 52, (4S)-4-[(2-chloro-4-{[(furan-2-yl)methyl]amino}-7-methylthieno[3,2-d]pyrimidin-6-yl)methyl]-1,3-oxazinan-2-one] | * (EC2×>1 μM) | ** (between >1.9 and <2.9)
Cc1nc(NCc2ccco2)c2sc(C[C@H](C)N)c(C)c2n1 [Cpd 15, 6-[(2S)-2-aminopropyl]-N-[(furan-2-yl)methyl]-2,7-dimethylthieno[3,2-d]pyrimidin-4-amine] | **** (between >0.005 μM and ≤0.02 μM) | ***** (>4.9)
Cc1c(C[C@H](C)N)sc2c(NCc3ccccc3F)nc(Cl)nc12 [Cpd 44, 6-[(2S)-2-aminopropyl]-2-chloro-N-[(2-fluorophenyl)methyl]-7-methylthieno[3,2-d]pyrimidin-4-amine] | ***** (<0.005 μM) | ***** (>4.9)
Cc1c(C[C@H](C)N)sc2c(NCc3nc(F)cs3)nc(Cl)nc12 [Cpd 92, 6-[(2S)-2-aminopropyl]-2-chloro-N-[(4-fluoro-1,3-thiazol-2-yl)methyl]-7-methylthieno[3,2-d]pyrimidin-4-amine] | ***** (<0.005 μM) | ***** (>4.9)
Cc1c(C[C@H](C)N)sc2c(NCc3ccco3)nc(Cl)nc12 [Cpd 12, 6-[(2S)-2-aminopropyl]-2-chloro-N-[(furan-2-yl)methyl]-7-methylthieno[3,2-d]pyrimidin-4-amine] | ***** (<0.005 μM) | ***** (>4.9)
Cc1c(CCCN)sc2c(NCc3ccco3)nc(Cl)nc12 [Cpd 67, 6-(3-aminopropyl)-2-chloro-N-[(furan-2-yl)methyl]-7-methylthieno[3,2-d]pyrimidin-4-amine] | * (EC2×>1 μM) | * (MFI<1.9)
Cc1c(C[C@H](C)N)sc2c(NCc3cccnc3F)nc(Cl)nc12 [Cpd 60, 6-[(2S)-2-aminopropyl]-2-chloro-N-[(2-fluoropyridin-3-yl)methyl]-7-methylthieno[3,2-d]pyrimidin-4-amine] | *** (between >0.02 μM and ≤0.5 μM) | *** (between >2.9 and <3.9)
Cc1c(C[C@H](C)N)sc2c(NCc3ncc(F)s3)nc(Cl)nc12 [Cpd 93, 6-[(2S)-2-aminopropyl]-2-chloro-N-[(5-fluoro-1,3-thiazol-2-yl)methyl]-7-methylthieno[3,2-d]pyrimidin-4-amine] | **** (between >0.005 μM and ≤0.02 μM) | ***** (>4.9)
Cc1c(C[C@H](C)NC2CCC2)sc2c(NCc3ccco3)nc(Cl)nc12 [Cpd 78, 2-chloro-6-[(2S)-2-(cyclobutylamino)propyl]-N-[(furan-2-yl)methyl]-7-methylthieno[3,2-d]pyrimidin-4-amine] | *** (between >0.02 μM and ≤0.5 μM) | *** (between >2.9 and <3.9)
Cc1c(C[C@@H](N)CCF)sc2c(NCc3ccco3)nc(Cl)nc12 [Cpd 51, 6-[(2S)-2-amino-4-fluorobutyl]-2-chloro-N-[(furan-2-yl)methyl]-7-methylthieno[3,2-d]pyrimidin-4-amine] | ***** (<0.005 μM) | ***** (>4.9)
Clc1nc(NCc2ccncc2)c2sccc2n1 [Cpd 1, 2-chloro-N-[(pyridin-4-yl)methyl]thieno[3,2-d]pyrimidin-4-amine] | * (EC2×>1 μM) | **** (between >3.9 and <4.9)
C[C@H](N)Cc1cc2ncnc(NCc3ccco3)c2s1 [Cpd 8, 6-[(2S)-2-aminopropyl]-N-[(furan-2-yl)methyl]thieno[3,2-d]pyrimidin-4-amine] | *** (between >0.02 μM and ≤0.5 μM) | *** (between >2.9 and <3.9)
Clc1nc(NCc2nccs2)c2sccc2n1 [Cpd 96, 2-chloro-N-[(1,3-thiazol-2-yl)methyl]thieno[3,2-d]pyrimidin-4-amine] | * (EC2×>1 μM) | ** (between >1.9 and <2.9)
Cc1ccoc1CNc1nc(Cl)nc2c(C)c(C[C@H](C)N)sc12 [Cpd 30, 6-[(2S)-2-aminopropyl]-2-chloro-7-methyl-N-[(3-methylfuran-2-yl)methyl]thieno[3,2-d]pyrimidin-4-amine] | *** (between >0.02 μM and ≤0.5 μM) | **** (between >3.9 and <4.9)
Cc1c(C[C@H](C)N)sc2c(NCc3cncs3)nc(Cl)nc12 [Cpd 74, 6-[(2S)-2-aminopropyl]-2-chloro-7-methyl-N-[(1,3-thiazol-5-yl)methyl]thieno[3,2-d]pyrimidin-4-amine] | *** (between >0.02 μM and ≤0.5 μM) | **** (between >3.9 and <4.9)
